Consider 39 compounds from patent US11186564B2, “Dual NAV1.2/5HT2a inhibitors for treating CNS disorders” (Sunovion Pharmaceuticals Inc., priority 2016, dated 2021).

For orientation: IC50 means the midpoint of a concentration-inhibition curve.

The target in the assay is T1, recombinant human serotonin receptor 5-HT2A (Homo sapiens, UniProt P28223).
T1 construct: expressed in transfected cells; method B: loaded with Ca2+ dye
The experiment in a line: 5-HT2A antagonist Ca2+ assay in CHO-K1 cells (method A aequorin luminescence / method B FLIPR fluorescence). Particulars: antagonist mode vs EC80 of reference agonist, method A or B. The format is cell-based. The method in brief: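 IC50 was obtained by nonlinear regression of percent inhibition of the EC80 agonist Ca2+ response in CHO-K1 cells stably expressing human 5-HT2A. The readout was aequorin luminescence with agonist injected 15 min after compound (A), or Ca2+-dye fluorescence on FLIPR with serotonin as agonist (B).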

The structures appear in SMILES notation. Like-named read-outs stand apart in the source and are kept apart here.

T1 sequence (P28223 whole entry): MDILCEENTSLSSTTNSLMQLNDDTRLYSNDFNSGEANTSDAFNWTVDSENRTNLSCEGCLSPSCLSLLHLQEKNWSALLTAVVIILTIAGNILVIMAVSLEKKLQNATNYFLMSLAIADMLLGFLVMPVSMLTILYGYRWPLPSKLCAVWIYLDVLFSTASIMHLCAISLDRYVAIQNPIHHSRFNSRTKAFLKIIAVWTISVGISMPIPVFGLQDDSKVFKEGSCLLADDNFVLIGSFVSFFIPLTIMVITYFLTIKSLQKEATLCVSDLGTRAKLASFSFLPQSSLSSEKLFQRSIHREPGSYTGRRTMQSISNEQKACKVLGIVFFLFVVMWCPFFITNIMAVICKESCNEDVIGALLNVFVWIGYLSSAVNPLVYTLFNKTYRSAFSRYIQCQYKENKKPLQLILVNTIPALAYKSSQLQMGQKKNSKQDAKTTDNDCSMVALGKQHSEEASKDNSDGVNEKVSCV

Take `COc1cccc(COC2CCN(CC3CCc4ccc(OC)cc43)CC2)c1` (stereo not drawn) [Example 245, 1-((6-methoxy-2,3-dihydro-1H-inden-1-yl)methyl)-4-((3-methoxybenzyl)oxy)piperidine]: the IC50 (read-out: 5HT2A IC50) was determined as 0.41 µM. The same measure, in the same setting: next, `COc1ccc2c(c1)C(CN1CCC(OCc3cccnc3)CC1)CC2` (stereo not drawn) [Example 246, 3-(((1-((6-methoxy-2,3-dihydro-1H-inden-1-yl)methyl)piperidin-4-yl)oxy)methyl)pyridine]: 0.98 µM. In the case of `COc1ccc2c(c1)C(CN1CCC(OCc3ccncc3)CC1)CC2` (stereo not drawn) [Example 248, 4-(((1-((6-methoxy-2,3-dihydro-1H-inden-1-yl)methyl)piperidin-4-yl)oxy)methyl)pyridine], under “read-out: 5HT2A IC50”, the IC50 is greater than 3.16 µM. As for `O=C1c2ccccc2CCN1CCN1CCOC(Cc2ccccc2)C1` (stereo not drawn) [Example 252, 2-(2-(2-benzylmorpholino)ethyl)-3,4-dihydroisoquinolin-1(2H)-one], for the setting “read-out: 5HT2A IC50”, the IC50 is greater than 16.7 µM. Still for that read-out and setting: next, `COc1ccc2c(c1)C(CN1CCC[C@H](Oc3ccc(F)cc3)C1)CC2` (stereo partly drawn) [Example 256, (3S)-3-(4-fluorophenoxy)-1-((6-methoxy-2,3-dihydro-1H-inden-1-yl)methyl)piperidine]: 3.99 µM.

On to `CC(C1CCc2ccccc21)N1CCC[C@H](Oc2ccc(F)cc2)C1` (stereo partly drawn) [Example 257, (3S)-1-(1-(2,3-dihydro-1H-inden-1-yl)ethyl)-3-(4-fluorophenoxy) piperidine], for which the IC50 (read-out: 5HT2A IC50) was greater than 10 µM. Still for that read-out and setting: for `OC1(CN2CCC[C@@H](Oc3ccc(F)cc3)C2)COCc2ccccc21` (stereo partly drawn) [Example 258, 4-(((R)-3-(4-fluorophenoxy)piperidin-1-yl)methyl)isochroman-4-ol] the value was 1.5 µM.

In the case of `OC1(CN2CCC[C@H](Oc3ccc(F)cc3)C2)COCc2ccccc21` (stereo partly drawn) [Example 259, 4-(((S)-3-(4-fluorophenoxy)piperidin-1-yl)methyl)isochroman-4-ol], the IC50 (read-out: 5HT2A IC50) is greater than 13.3 µM. On the same count and under the same terms, for `Fc1ccc(O[C@@H]2CCCN(CC3COCc4ccccc43)C2)cc1` (stereo partly drawn) [Example 260, (3R)-3-(4-fluorophenoxy)-1-(isochroman-4-ylmethyl)piperidine] the value was 1.81 µM; for `Fc1ccc(O[C@@H]2CCCN(CCC3CCOc4ccccc43)C2)cc1` (stereo partly drawn) [Example 262, (3R)-1-(2-(chroman-4-yl)ethyl)-3-(4-fluorophenoxy)piperidine], 1.63 µM. The same measure, in the same setting: next, `Fc1ccc(O[C@H]2CCCN(CCC3CCOc4ccccc43)C2)cc1` (stereo partly drawn) [Example 263, (3S)-1-(2-(chroman-4-yl)ethyl)-3-(4-fluorophenoxy)piperidine]: greater than 12.9 µM; `O=C1c2ccccc2CCN1CCN1CCC[C@@H](Oc2ccc(F)cc2)C1` [Example 264, (R)-2-(2-(3-(4-fluorophenoxy)piperidin-1-yl)ethyl)-3,4-dihydroisoquinolin-1(2H)-one]: 0.94 µM; `O=C1c2ccccc2CCN1CCN1CCC[C@H](Oc2ccc(F)cc2)C1` [Example 265, (S)-2-(2-(3-(4-fluorophenoxy)piperidin-1-yl)ethyl)-3,4-dihydroisoquinolin-1(2H)-one]: greater than 13.1 µM. Still for that read-out and setting: for `O[C@H](COC1CCCCC1)CN1CCC[C@@H](Oc2ccc(F)cc2)C1` [Example 266, (S)-1-(cyclohexyloxy)-3-((R)-3-(4-fluorophenoxy)piperidin-1-yl)propan-2-ol] the value was greater than 12.9 µM; for `O[C@@H](COC1CCCCC1)CN1CCC[C@@H](Oc2ccc(F)cc2)C1` [Example 267, (R)-1-(cyclohexyloxy)-3-((R)-3-(4-fluorophenoxy)piperidin-1-yl)propan-2-ol], 10.4 µM; for `O[C@H](COC1CCCCC1)CN1CCC[C@H](Oc2ccc(F)cc2)C1` [Example 268, (S)-1-(cyclohexyloxy)-3-((S)-3-(4-fluorophenoxy)piperidin-1-yl)propan-2-ol], 2.12 µM. Consider `O[C@@H](COC1CCCCC1)CN1CCC[C@H](Oc2ccc(F)cc2)C1` [Example 269, (R)-1-(cyclohexyloxy)-3-((S)-3-(4-fluorophenoxy)piperidin-1-yl)propan-2-ol], for which the IC50 (read-out: 5HT2A IC50) is 2.17 µM. Same read-out and setting: for `Fc1ccc(OC2CCCN(CC3Cc4cccnc4C3)CC2)cc1` (stereo not drawn) [Example 273, 6-((4-(4-fluorophenoxy)azepan-1-yl)methyl)-6,7-dihydro-5H-cyclopenta[b]pyridine] the value was 0.02 µM. For `Fc1ccc(OC2COCCN(CC3COc4ccccc43)C2)cc1` (stereo not drawn) [Example 278, 4-((2,3-dihydrobenzofuran-3-yl)methyl)-6-(4-fluorophenoxy)-1,4-oxazepane], the IC50 (read-out: 5HT2A IC50) was greater than 3.16 µM. As to `Fc1ccc(OC2COCCN(CC3Cc4cccnc4C3)C2)cc1` (stereo not drawn) [Example 279, 4-((6,7-dihydro-5H-cyclopenta[b]pyridin-6-yl)methyl)-6-(4-fluorophenoxy)-1,4-oxazepane], for the setting “read-out: 5HT2A IC50”, the IC50 is greater than 10 µM. With `O=C1c2ccccc2CCN1CCN1CCCCC(Oc2ccc(F)cc2)C1` (stereo not drawn) [Example 280, 2-(2-(3-(4-fluorophenoxy)azepan-1-yl)ethyl)-3,4-dihydroisoquinolin-1(2H)-one], where the note is “read-out: 5HT2A IC50”, the IC50 was 4.89 µM. Consider `O[C@H](COC1CCCCC1)CN1[C@@H]2CC[C@H]1CN(c1ccc(F)cc1)C2` [Example 289, (S)-1-(cyclohexyloxy)-3-((1R,5S)-3-(4-fluorophenyl)-3,8-diazabicyclo[3.2.1]octan-8-yl)propan-2-ol], for which the IC50 (5HT2A IC50, μM) came to 0.02 µM. Still for that read-out and setting: next, `O[C@@H](COC1CCCCC1)CN1[C@@H]2CC[C@H]1CN(c1ccc(F)cc1)C2` [Example 290, (R)-1-(cyclohexyloxy)-3-((1R,5S)-3-(4-fluorophenyl)-3,8-diazabicyclo[3.2.1]octan-8-yl)propan-2-ol]: 0.002 µM. As to `O[C@@H](COC1CCCCC1)CN1[C@@H]2CC[C@H]1CN(c1nccs1)C2` [Example 291, (R)-1-(cyclohexyloxy)-3-((1R,5S)-3-(thiazol-2-yl)-3,8-diazabicyclo[3.2.1]octan-8-yl)propan-2-ol], where the note is “read-out: 5HT2A IC50”, the IC50 was greater than 10 µM. On the same count and under the same terms, for `O[C@H](COC1CCCCC1)CN1[C@@H]2CC[C@H]1CN(c1nccs1)C2` [Example 292, (S)-1-(cyclohexyloxy)-3-((1R,5S)-3-(thiazol-2-yl)-3,8-diazabicyclo[3.2.1]octan-8-yl)propan-2-ol] the value was greater than 10 µM. The same measure, in the same setting: next, `c1ccc(N2[C@@H]3C[C@H]2CN(CC2CCc4ccccc42)C3)cc1` (stereo partly drawn) [Example 293, (1R,5S)-3-((2,3-dihydro-1H-inden-1-yl)methyl)-6-phenyl-3,6-diazabicyclo[3.1.1]heptane]: 1.02 µM; `COc1ccc2c(c1)C(CN1C[C@H]3CC[C@@H](C1)N3c1ccccc1)CC2` (stereo partly drawn) [Example 296, (1R,5S)-3-((6-methoxy-2,3-dihydro-1H-inden-1-yl)methyl)-8-phenyl-3,8-diazabicyclo[3.2.1]octane]: greater than 10 µM. On the same count and under the same terms, for `c1ccc(CCN2C[C@H]3CC[C@@H](C2)N3c2ccccc2)cc1` [Example 298, (1R,5S)-3-phenethyl-8-phenyl-3,8-diazabicyclo[3.2.1]octane] the value was greater than 11 µM; for `O[C@H](COC1CCCCC1)CN1C[C@H]2CC[C@@H](C1)N2c1ccccc1` [Example 300, (S)-1-(cyclohexyloxy)-3-((1R,5S)-8-phenyl-3,8-diazabicyclo[3.2.1]octan-3-yl)propan-2-ol], greater than 10 µM; for `O[C@@H](COC1CCCCC1)CN1C[C@H]2CC[C@@H](C1)N2c1ccccc1` [Example 301, (R)-1-(cyclohexyloxy)-3-((1R,5S)-8-phenyl-3,8-diazabicyclo[3.2.1]octan-3-yl)propan-2-ol], greater than 10 µM.

Take `OC(COc1ccccc1)CN1C[C@H]2CC[C@@H](C1)N2c1ccccc1` (stereo partly drawn) [Example 302, 1-phenoxy-3-((1R,5S)-8-phenyl-3,8-diazabicyclo[3.2.1]octan-3-yl)propan-2-ol]: the IC50 (read-out: 5HT2A IC50) was greater than 2.7 µM. Still for that read-out and setting: next, `c1ccc(CCN2C[C@@H]3C[C@H]2CN3c2ccccc2)cc1` [Example 305, (1S,4S)-2-phenethyl-5-phenyl-2,5-diazabicyclo[2.2.1]heptane]: greater than 14.5 µM. The same measure, in the same setting: for `OC(COc1ccccc1)CN1C[C@@H]2C[C@H]1CN2c1ccccc1` (stereo partly drawn) [Example 307, 1-phenoxy-3-((1S,4S)-5-phenyl-2,5-diazabicyclo[2.2.1]heptan-2-yl)propan-2-ol] the value was 10.4 µM; for `c1ccc(N2C[C@@H]3C[C@H]2CCN3CC2Cc3cccnc3C2)cc1` (stereo partly drawn) [Example 320, 6-(((1S,5R)-6-phenyl-2,6-diazabicyclo[3.2.1]octan-2-yl)methyl)-6,7-dihydro-5H-cyclopenta[b]pyridine], greater than 10 µM.

Take `c1ccc(N2C[C@@H]3C[C@H]2CCN3CC2Cc3ccncc3C2)cc1` (stereo partly drawn) [Example 321, 6-(((1S,5R)-6-phenyl-2,6-diazabicyclo[3.2.1]octan-2-yl)methyl)-6,7-dihydro-5H-cyclopenta[c]pyridine]: the IC50 (read-out: 5HT2A IC50) was greater than 10 µM. Same read-out and setting: next, `c1ccc(N2C[C@@H]3C[C@H]2CCN3CC2COCc3ccccc32)cc1` (stereo partly drawn) [Example 322, (1S,5R)-2-(isochroman-4-ylmethyl)-6-phenyl-2,6-diazabicyclo[3.2.1]octane]: greater than 3.16 µM. For the compound `c1ccc(N2C[C@@H]3C[C@H]2CCN3CCC2CCc3cccnc32)cc1` (stereo partly drawn) [Example 323, 7-(2-((1S,5R)-6-phenyl-2,6-diazabicyclo[3.2.1]octan-2-yl)ethyl)-6,7-dihydro-5H-cyclopenta[b]pyridine], under “read-out: 5HT2A IC50”, the IC50 is greater than 3.16 µM. Still for that read-out and setting: next, `O=C1c2ccccc2CCN1CCN1CC[C@@H]2C[C@H]1CN2c1ccccc1` [Example 324, 2-(2-((1S,5R)-6-phenyl-2,6-diazabicyclo[3.2.1]octan-2-yl)ethyl)-3,4-dihydroisoquinolin-1(2H)-one]: greater than 3.16 µM.

Turning to `O[C@H](COC1CCCCC1)CN1CC[C@@H]2C[C@H]1CN2c1ccccc1` [Example 326, (S)-1-(cyclohexyloxy)-3-((1S,5R)-6-phenyl-2,6-diazabicyclo[3.2.1]octan-2-yl)propan-2-ol], the IC50 (read-out: 5HT2A IC50) is greater than 3.16 µM.
